# Legend:
# [1] = tested on: APPswe/PS1DE9 (AD) transgenic mice; assay: Morris water maze; format: in vivo; details: prophylactic and therapeutic test, vs control group
# Experimental: APPswe/PS1DE9 (AD) transgenic mice were purchased from Jackson Laboratory, USA (No. 005864), raised in the SPF grade animal house of The Third Affiliated Hospital of The Third Military Medical University. All the processes and correlated experiments applied to the mice were approved and filed with the Animal Ethics Committee of the Third Military Medical University. […] Alternatively, the daily dose for the prophylactic group may be 6.4 mg/kg, and the daily dose for the treatment group may be 12.8 mg/kg. Administration from 3-month old to 9-month old is the prophylactic test, and administration from 9-month old to 12-month old is the therapeutic test After reaching a stated time, the mice in each group received behavioral tests according to the method in the follows. Three mice in each group were taken for Golgi staining. […] The entire process was recorded by video, and analyzed with an image analysis software (ANY-maze, Stoelting). In the platform test, the escape path length and escape latency were measured and calculated. In the probe test, the time in each quadrant and the time across platform were measured. […] In the open field test, the mouse was put in the center of an open field for 3 min, and its path was recorded by a tracking system (Limelight, ActiMetrics). At the same time, the numbers of rearing, grooming, defecation and urination of the mouse were recorded.
# [2] = tested on: SH-SY5Y cells; assay: Neurite growth detection, Aβ-treated SH-SY5Y cells; format: cell-based; details: 1 μM Aβ, 24 h
# Experimental: The SH-SY5Y cell line was purchased from the Peking Union Hospital Cell Bank, cultured in a humidified incubator under 5% CO2 and 37° C., A MTT cell viability assay was performed according to the instructions in the kit (Sigma). […] The optical density values were determined at a wavelength of 563 nm (Synergy H4, Bio Tek). The neurite growth test was performed according to the method described in the prior documents (see, for example, Wang, Y. J., et al., Effects of proNGF on neuronal viability, neurite growth and amyloid-beta metabolism. Neurotox Res, 2010, 17(3): p. 257-67).
compound,measurement,setting,value
"CC1=NN(c2ccccc2)C(=O)C1 [Edaravone, 3-methyl-1-phenyl-2-pyrazolin-5-one]",Morris water maze escape time,[1],reduction of escape time
same,Morris water maze times across platform,[1],increase in times across platform
same,all-trans-Retinoic acid induced neurite length,[2],neurite length also increases
